The text below walks through data of patent publication US20250282742A1, “BENZOFURAN DERIVATIVES FOR TARGETING AUTOPHAGY” (Automera PTE. LTD, priority 2024, published 2025).

Where only a bound is given, the exact number is not on record here.

For the first assay, the target named is T1, Recombinant p62 protein (Homo sapiens, UniProt Q13501).
T1 construct: Recombinant p62 protein was buffer exchanged into Biacore SPR running buffer
T1 sequence (Q13501 whole entry, species assumed): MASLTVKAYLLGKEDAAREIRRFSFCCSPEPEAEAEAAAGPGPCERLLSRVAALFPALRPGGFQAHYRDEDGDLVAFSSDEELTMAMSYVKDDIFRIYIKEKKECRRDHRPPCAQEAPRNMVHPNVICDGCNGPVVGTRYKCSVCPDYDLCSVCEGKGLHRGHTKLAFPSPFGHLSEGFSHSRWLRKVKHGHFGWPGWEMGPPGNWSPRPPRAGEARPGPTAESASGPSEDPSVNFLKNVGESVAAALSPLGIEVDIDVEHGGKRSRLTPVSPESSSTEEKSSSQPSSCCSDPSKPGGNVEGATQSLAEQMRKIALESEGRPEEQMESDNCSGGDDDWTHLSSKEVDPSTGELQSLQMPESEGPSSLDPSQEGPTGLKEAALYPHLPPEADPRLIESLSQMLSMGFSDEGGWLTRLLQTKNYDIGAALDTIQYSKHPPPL
Kind of assay: Surface plasmon resonance (SPR) compound binding to immobilised p62. As to conditions: recombinant p62, 15° C. The procedure: Example 28: Surface Plasmon Resonance (SPR) Analysis
Recombinant p62 protein was buffer exchanged into Biacore SPR running buffer (Cytiva 100671) using the Slide-A-Lyzer Mini Dialysis system 7K MWCO (Thermo Fisher Scientific, Cat no. 69560). The final protein concentration was determined using the Nanodrop One spectrophotometer (Thermo Fisher Scientific, cat no. ND-ONE-W), with calibration for the dialysis buffer.
The prepared protein was diluted in sodium acetate buffer (NaAc, pH 5.5, Cytiva) to concentrations ranging from approximately 0.25-40 μg/mL. Post-immobilization, the protein required approximately 16 hours of equilibration in running buffer supplemented with 1% DMSO at 15° C. to ensure adequate surface equilibration and protein reorganization.
All SPR experiments were conducted at a constant temperature of 15° C. The SPR chip surface was activated using EDC/NHS for a contact time of 6-10 min at a flow rate of 10 μL/min. This was followed by protein immobilization for 2100 seconds and ethanolamine capping for 420 seconds, both at the same flow rate. Immediately after immobilization, the NH2—REEE peptide was analyzed in Single Cycle Kinetics mode (SCK) to verify surface activity, ensuring it binds the sample with the published affinity (−20 μM by SPR).
For general compound binding studies, experiments were performed at 15° C. using a running buffer composed of 10 mM HEPES, 150 mM NaCl, 1 mM DTT, 0.05% Tween 20, and 1% DMSO at pH 7.4. The test compound was initially prepared at a 20 mM concentration in DMSO and subsequently titrated in 2-fold dilutions. For each assay, 2 μL of the compound was mixed with 198 μL of the running buffer, and the mixture was thoroughly pipetted approximately 15 times for homogenization.
A series of blank injections (0 μM concentration) were included for double referencing, with at least 8 or 16 per plate depending on the format. Typical injection parameters were 120 seconds for association and 180 seconds for dissociation at a flow rate of […]. A four-point solvent correction was prepared with DMSO concentrations ranging from 2% to 0.5% in the buffer. Post each compound injection, the system's needles were washed with 50% DMSO.
Analysis of the SPR data was conducted using the Cytiva Evaluation software. The binding levels at the late time-point of each interaction were corrected for reference, then normalized to percentage bound values to account for variations in immobilization levels, protein molecular weight, and compound molecular weight.
Compound binding studies were carried out according to experimental procedures above and SPR % occupancy was determined and summarized in Table 7.
For the compound `OCCNCc1ccc2nc(Cc3ccccc3)sc2c1` [compound 48, 2-(((2-benzylbenzo[d]thiazol-6-yl)methyl)amino)ethan-1-ol], the receptor occupancy at 100 µM is 30 to 70%.
Same read-out and setting: under `OCCNCc1ccc2cc(Cc3ccccc3)oc2c1F` [Compound 38, 2-(((2-benzyl-7-fluorobenzofuran-6-yl)methyl)amino)ethan-1-ol] stands 30 to 70%; under `OCCNCc1ccc2cc(Cc3ccncc3)oc2c1` [Compound 16, 2-(((2-(pyridin-4-ylmethyl)benzofuran-6-yl)methyl)amino)ethan-1-ol], 30 to 70%; under `OCCNCc1ccc2nc(Cc3ccccc3)oc2c1` [compound 47, 2-(((2-benzylbenzo[d]oxazol-6-yl)methyl)amino)ethan-1-ol], < 30%.
Still for that read-out and setting: to `OCCNCc1ccc2cc(CN3CCCC(O)C3)oc2c1` (stereo not shown) [compound 28] belongs < 30%; to `O=C(NCCO)c1ccc2cc(Cc3ccccc3)oc2c1` [Compound 6, 2-benzyl-N-(2-hydroxyethyl)benzofuran-6-carboxamide], < 30%.
For the compound `O=S(=O)(Nc1ccccc1)c1cc2ccc(CNCCO)cc2o1` [Compound 19, 6-(((2-hydroxyethyl)amino)methyl)-N-phenylbenzofuran-2-sulfonamide], the receptor occupancy at 100 µM fell in the range of 30 to 70%.
On the same count and under the same terms, to `OCCNCc1cccc2oc(Cc3ccccc3)cc12` [compound 4] belongs 30 to 70%; to `OCCNCc1ccc2oc(Cc3ccccc3)cc2c1` [compound 45], 30 to 70%; to `OCCNCc1cc2oc(Cc3ccccc3)cc2cc1F` [Compound 36, 2-(((2-benzyl-5-fluorobenzofuran-6-yl)methyl)amino)ethan-1-ol], 30 to 70%.
As to `O=S(=O)(c1ccccc1)c1cc2ccc(CNCCO)cc2o1` [Compound 18, 2-(((2-(phenylsulfonyl)benzofuran-6-yl)methyl)amino)ethan-1-ol], the receptor occupancy at 100 µM fell in the range of 30 to 70%.
On the same count and under the same terms, under `O=C(NCCO)c1ccc2cc(CCc3ccc(F)cc3)oc2c1` [compound 50, 2-(4-fluorophenethyl)-N-(2-hydroxyethyl)benzofuran-6-carboxamide] stands < 30%; under `OCCNCc1ccc2cc(CNC3CCOCC3)oc2c1` [compound 32], < 30%.
Still for that read-out and setting: under `O=C(CCO)Nc1ccc2cc(Cc3ccccc3)oc2c1` [Compound 11, N-(2-benzylbenzofuran-6-yl)-3-hydroxypropanamide] stands < 30%.
Still for that read-out and setting: to `CN(C)C(=O)Cc1cc2ccc(CNCCO)cc2o1` [Compound 29, 2-(6-(((2-hydroxyethyl)amino)methyl)benzofuran-2-yl)-N,N-dimethylacetamide] belongs < 30%; to `O=C(c1cc2ccc(CNCCO)cc2o1)N1CCCCC1` [Compound 34, (6-(((2-hydroxyethyl)amino)methyl)benzofuran-2-yl)(piperidin-1-yl)methanone], < 30%.
For the compound `OCCNCc1ccc2cc(Cc3c[nH]cn3)oc2c1` [compound 23], the receptor occupancy at 100 µM is < 30%.

A further assay relates to p62 puncta in HeLa cells. Kind of assay: p62 puncta assay (immunocytochemistry and imaging, EVOS M7000 or Operetta CLS). The format is cell-based. As to conditions: Homo sapiens, fold change in p62 puncta levels relative to DMSO control, 24 hr. As to the method:
HeLa cells were seeded in coated 96-well plates (10,000 cells) and allowed to adhere overnight. After 24 hours of treatment with either vehicle (DMSO) or test compounds, the media was discarded, and cells were rinsed with ice-cold 1×PBS before fixation by 4% formaldehyde or paraformaldehyde for 20 min. Cells were then washed with 1×PBS and permeabilized with 0.1% Triton X-100 in PBS for 20 min and blocked with Blocking Buffer in PBS for 1 hour. The cells were incubated thereafter for 1 hour with anti-p62 primary antibody in Blocking Buffer, followed by incubation with secondary antibody for 1 hour. DAPI dye was used to visualize nuclei of fixed cells. The blocking buffer used were 5% Fetal Bovine Serum (FBS, ThermoFIsher Scientific, 10270106) and Li-cor Intercept (PBS) Blocking Buffer (Li-cor, 927-70001). The primary antibody used was mouse anti-p62 primary antibody (Novus Biologicals, H00008878-MO1). The secondary antibodies used were goat anti-mouse Alexa Fluor Plus 488 secondary antibody (Invitrogen, GOXMS) and goat anti-mouse Alexa Fluor 488 secondary antibody (Invitrogen, A-11029). The DAPI dyes used were DAPI dye (Invitrogen, 62248) and DAPI dye (Invitrogen, D1306).
For the EVOS M7000 System, cells were imaged on the EVOS M7000 microscope using a 20× air objective (Nikon, N.A 0.45). DAPI and p62 channels were illuminated with LED light cubes using integrated hard-coated filter sets for DAPI (357/447 nm) and GFP (470/525 nm) respectively. Images were analysed for p62 puncta count on the Celeste 6.0 software.
For the Operetta CLS System, cells were imaged on the Operetta CLS using a 63× water objective on the DAPI and Alexa 488 channels. Images were analysed for p62 puncta count on the Harmony 5.1 software.
HeLa cells were treated with compounds for 24 hours to evaluate the effect of these compounds on p62 puncta activity. The resulting changes in levels of p62 puncta were assessed by imaging, either on the EVOS M7000 or Operetta CLS systems as described in experimental procedures. The fold change of p62 puncta levels induced by compound treatment relative to vehicle control (DMSO) was determined and summarized in Table 10.
Consider `OCCNCc1ccc2oc(Cc3ccccc3)cc2c1` [compound 45], for which the fold induction at 5 µM is < 2.
Still for that read-out and setting: under `COC(=O)c1cccc(COCCNCc2ccc3cc(CCc4ccc(F)cc4)oc3c2)c1` [compound 135] stands < 2; under `CC(C)NCCOCc1ccc2cc(CCc3ccc(F)cc3)oc2c1` [compound 79], > 2.
Still for that read-out and setting: to `COC(=O)CCOCCOCCOCCNCc1ccc2cc(CCc3ccc(F)cc3)oc2c1` [compound 160] belongs < 2; to `C#CCCOCCNCc1ccc2cc(CCc3ccc(F)cc3)oc2c1` [compound 133], > 2.
The same measure, in the same setting: under `CC(C)NCC(O)COc1ccc2cc(CCc3ccc(F)cc3)oc2c1` (stereo not shown) [compound 80] stands > 2; under `CC(C)(C)OC(=O)CCCCOCCNCc1ccc2cc(CCc3ccc(F)cc3)oc2c1` [compound 137], < 2.
Take `COC(=O)c1ccc(N2CCC(COCCNCc3ccc4cc(CCc5ccc(F)cc5)oc4c3)CC2)cc1` [compound 162]: the fold induction at 5 µM is > 2.
On the same count and under the same terms, under `CC(C)(C)OC(=O)NCCOCCNCc1ccc2cc(CCc3ccc(F)cc3)oc2c1` [compound 122] stands > 2.
As for `CNCCCOCCOCCNCc1ccc2cc(-c3ccccc3)oc2c1` [compound 120], the fold induction at 5 µM is > 2.
The same measure, in the same setting: under `CNCCOCCOCCNCc1ccc2cc(CCc3ccc(F)cc3)oc2c1` [compound 86] stands > 2.
Same read-out and setting: under `CC(C)(C)OC(=O)CCOCCNCc1ccc2cc(CCc3ccc(F)cc3)oc2c1` [compound 132] stands > 2.
Still for that read-out and setting: to `CC(C)(C)OC(=O)COCCCOCCNCc1ccc2cc(CCc3ccc(F)cc3)oc2c1` [compound 128] belongs > 2; to `COC(=O)C1(COCCNCc2ccc3cc(CCc4ccc(F)cc4)oc3c2)COC1` [compound 146], < 2.
As to `CC(C)NCCOCc1ccc2cc(-c3ccccc3)oc2c1` [compound 77], the fold induction at 5 µM is > 2.
Still for that read-out and setting: to `COC(=O)c1ccc(OCCOCCNCc2ccc3cc(CCc4ccc(F)cc4)oc3c2)cc1` [compound 159] belongs > 2.
On the same count and under the same terms, to `CC(C)(C)OC(=O)N1CCC(CCOCCNCc2ccc3cc(CCc4ccc(F)cc4)oc3c2)CC1` [compound 152] belongs > 2.
On the same count and under the same terms, to `C#CCCCCCOCCNCc1ccc2cc(CCc3ccc(F)cc3)oc2c1` [compound 138] belongs > 2; to `CC(C)(C)OC(=O)NCCOCCOCCOCCNCc1ccc2cc(CCc3ccc(F)cc3)oc2c1` [compound 125], > 2.
As to `C#CCCOCCOCCNCC(O)COc1ccc2cc(Cc3ccccc3)oc2c1` (stereo not shown) [compound 98, 1-((2-benzylbenzofuran-6-yl)oxy)-3-((2-(2-(but-3-yn-1-yloxy)ethoxy)ethyl)amino)propan-2-ol], the fold induction at 5 µM is > 2.
The same measure, in the same setting: to `CC(C)(C)OC(=O)Nc1ccc(COCCNCc2ccc3cc(CCc4ccc(F)cc4)oc3c2)cc1` [compound 151] belongs > 2.
On the same count and under the same terms, to `CC(C)(C)OC(=O)N1CCC(COCCNCc2ccc3cc(CCc4ccc(F)cc4)oc3c2)CC1` [compound 123] belongs > 2.
The same measure, in the same setting: to `C#CCCCCCCOCCNCc1ccc2cc(CCc3ccc(F)cc3)oc2c1` [compound 141] belongs > 2.
